Test results published in ChEMBL document CHEMBL1138271, “Discovery of 5-substituted-6-chlorouracils as efficient inhibitors of human thymidine phosphorylase” (J Med Chem, 2007).

What was measured:
[1] = Acid dissociation constant, pKa of the compound; format: physicochemical
Thymidine phosphorylase [2] = biological target: T1, Thymidine phosphorylase (Homo sapiens, UniProt P19971); assay: Inhibition of human recombinant thymidine phosphorylase expressed in V79 cells; format: cell-based
T1 sequence (P19971 whole entry): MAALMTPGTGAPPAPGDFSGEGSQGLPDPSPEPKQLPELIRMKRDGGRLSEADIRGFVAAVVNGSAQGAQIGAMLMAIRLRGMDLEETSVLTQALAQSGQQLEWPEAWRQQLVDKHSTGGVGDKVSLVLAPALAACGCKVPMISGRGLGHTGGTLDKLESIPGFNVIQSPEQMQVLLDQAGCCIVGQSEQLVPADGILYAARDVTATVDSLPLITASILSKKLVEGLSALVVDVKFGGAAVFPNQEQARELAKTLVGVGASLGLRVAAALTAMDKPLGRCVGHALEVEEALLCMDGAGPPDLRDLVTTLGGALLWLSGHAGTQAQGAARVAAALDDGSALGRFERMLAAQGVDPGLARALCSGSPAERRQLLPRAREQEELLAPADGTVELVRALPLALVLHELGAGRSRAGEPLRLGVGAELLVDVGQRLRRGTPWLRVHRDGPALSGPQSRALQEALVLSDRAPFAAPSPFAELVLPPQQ

Thymidine phosphorylase [3] = biological target: T1, Thymidine phosphorylase; assay: Inhibition of human placental thymidine phosphorylase

pKa [1]	Ki (Thymidine phosphorylase [2])	Ki (Thymidine phosphorylase [3])	SMILES
5.8			O=c1[nH]c(Cl)c(C2=CCCC2)c(=O)[nH]1
	> 20 µM	> 20 µM	CCc1c(Cl)[nH]c(=O)[nH]c1=O
	> 20 µM	> 20 µM	Cc1[nH]c(=O)[nH]c(=O)c1-c1ccccc1

More lines, now with the values behind:

SMILES	pKa [1]	Ki (Thymidine phosphorylase [2])	Ki (Thymidine phosphorylase [3])
O=c1[nH]c(N2CCCC2)c(-c2ccccc2)c(=O)[nH]1		> 20 µM	> 20 µM
NCCNc1[nH]c(=O)[nH]c(=O)c1-c1ccccc1		> 20 µM	> 20 µM
